Calls of active or inactive are those of the source. The rule behind the calls is not given here. Bridge positions count the residues as written; N and C are the ends. Peptide text beside a SMILES is read from it.
Columns and labels:
LX-2 = assay: Anti-fibrotic activity in human LX2 cells assessed as reduction in […] expression by measuring relative inhibition rate measured after 24 hrs incubation by Western blot analysis relative to control; format: functional; set-up: concentration or dose not given beside the values
Mus musculus [1] = assay: In vivo anti-fibrotic activity against CCl4-induced liver fibrosis C57BL/6J mouse model assessed as decrease in COL1alpha at 150 to 300 microg/kg once daily for 3 weeks by IHC staining based assay; format: functional, organism-based; settings: dose 150-300 µg/kg
Mus musculus [2] = assay: In vivo anti-fibrotic activity against CCl4-induced liver fibrosis C57BL/6J mouse model assessed as liver function by measuring decrease in hydroxyproline (HYP) at 150 to 300 microg/kg once daily for 3 weeks by Western blot analysis; format: functional, organism-based; settings: dose 150-300 µg/kg
Mus musculus [3] = assay: In vivo anti-fibrotic activity against CCl4-induced liver fibrosis C57BL/6J mouse model assessed as reduction in Acta2 mRNA level at 150 to 300 microg/kg once daily for 3 weeks by RT-qPCR analysis; format: functional, organism-based; settings: dose 150-300 µg/kg
Mus musculus [4] = assay: In vivo anti-fibrotic activity against CCl4-induced liver fibrosis C57BL/6J mouse model assessed as reduction in ROS treated once daily for 3 weeks by RT-qPCR analysis; format: functional, organism-based; settings: dose 150-300 µg/kg
Mus musculus [5] = assay: In vivo anti-fibrotic activity against CCl4-induced liver fibrosis C57BL/6J mouse model assessed as reduction in oxidative stress by measuring increase in catalase at 150 to 300 microg/kg once daily for 3 weeks by enzyme activity assay; format: functional, organism-based; settings: dose 150-300 µg/kg
Mus musculus [6] = assay: In vivo anti-fibrotic activity against CCl4-induced liver fibrosis C57BL/6J mouse model assessed as reduction in hepatocyte apoptosis at 300 microg/kg once daily for 3 weeks by TUNEL assay; format: functional, organism-based; settings: dose 300.0 µg/kg
Mus musculus [7] = assay: In vivo anti-fibrotic activity against methionine and choline-deficient (MCD) diet-induced liver fibrosis C57BL/6J mouse model assessed as decrease in inflammatory infiltration and collagen deposition at 150 to 300 microg/kg once daily for 3 weeks by ORO staining based assay; format: functional, organism-based; settings: dose 150-300 µg/kg
Mus musculus [8] = assay: In vivo anti-fibrotic activity against methionine and choline-deficient (MCD) diet-induced liver fibrosis C57BL/6J mouse model assessed as reduction in inflammation by measuring decrease in Ly6G inflammation marker at 150 to 300 microg/kg once daily for 3 weeks by IHC staining based assay; format: functional, organism-based; settings: dose 150-300 µg/kg
Mus musculus [9] = assay: Reduction in fatty acid synthesis related gene expression in methionine and choline-deficient (MCD) diet-induced liver fibrosis C57BL/6J mouse model assessed as reduction in SCD1 mRNA level at 150 to 300 microg/kg once daily for 3 weeks by qPCR analysis; format: functional, organism-based; settings: dose 150-300 µg/kg
Mus musculus [10] = assay: Induction of fatty acid beta-oxidation related gene expression in methionine and choline-deficient (MCD) diet-induced liver fibrosis C57BL/6J mouse model assessed as increase in […] mRNA level at 150 to 300 microg/kg once daily for 3 weeks by qPCR analysis; format: functional, organism-based; settings: dose 150-300 µg/kg
Mus musculus [11] = assay: Induction of fatty acid beta-oxidation related gene expression in methionine and choline-deficient (MCD) diet-induced liver fibrosis C57BL/6J mouse model assessed as increase in PGC1A mRNA level at 150 to 300 microg/kg once daily for 3 weeks by qPCR analysis; format: functional, organism-based; settings: dose 150-300 µg/kg
Mus musculus [12] = assay: In vivo anti-fibrotic activity against methionine and choline-deficient (MCD) diet-induced liver fibrosis C57BL/6J mouse model assessed as reduction in oxidative stress by measuring decrease in lipid oxidation product MDA at 150 to 300 microg/kg once daily for 3 weeks by enzyme activity assay; format: functional, organism-based; settings: dose 150-300 µg/kg
Mus musculus [13] = assay: In vivo anti-fibrotic activity against methionine and choline-deficient (MCD) diet-induced liver fibrosis C57BL/6J mouse model assessed as reduction in oxidative stress by measuring increase in superoxide dismutase at 150 to 300 microg/kg once daily for 3 weeks by enzyme activity assay; format: functional, organism-based; settings: dose 150-300 µg/kg

CC[C@H](C)[C@@H]1NC(=O)[C@H]([C@@H](C)O)NC(=O)[C@@H]2CCCN2C(=O)[C@H](CO)NC(=O)[C@H](CC(N)=O)NC(=O)[C@H](CCCCN)NC(=O)[C@H](CCCCN)NC(=O)[C@@H](N)CSSC[C@@H](C(=O)O)NC1=O (H-CKKNSPTIC-OH; disulfide 1-9)
Activity (LX-2): 47%
Activity (Mus musculus [1]): Active
Activity (Mus musculus [2]): Active
Activity (Mus musculus [3]): Active
Activity (Mus musculus [4]): Active
Activity (Mus musculus [5]): Active
Activity (Mus musculus [6]): Active
Activity (Mus musculus [7]): Active
Activity (Mus musculus [8]): Active
Activity (Mus musculus [9]): Active
Activity (Mus musculus [10]): Active
Activity (Mus musculus [11]): Active
Activity (Mus musculus [12]): Active
Activity (Mus musculus [13]): Active

From ChEMBL document CHEMBL5523746, “Discovery of Novel Peptide Antagonists Targeting GPR55 for Liver Inflammation and Fibrosis” (2024)
